Assay results reported in publication PMC5268383, “Inhibition of STAT3 by Anticancer Drug Bendamustine” (PLoS ONE, 2017).
Read-outs that look alike come from different tables or passages of the source.

What was measured:
[1] = target: T1, STAT1 SH2 (Homo sapiens, UniProt P42224); test: AlphaScreen SH2 binding assay, STAT1
T1 construct: Avi-tag (N); 6His-tag (N)
Description: (§1) AlphaScreen assays were performed in a final reaction volume of 25 μL of the assay buffer, containing 10 mM HEPES-NaOH (pH 7.4), 50 mM NaCl, 1 mM EDTA (pH 8.0), 0.1% NP-40, and 10 ng/mL BSA in a 96-well microtiter plate at 25°C. The labeled Phospho-Tyr (pTyr) peptide probe was 5-carboxyfluorescein (FITC)-GpYLPQTV for STAT3, FITC-GpYDKPHVL for STAT1, and FITC-PSpYVNVQN for Grb2. A DMSO solution of BENDA was incubated with 50 nM of each SH2-containing protein for 15 min, 50 nM of the corresponding FITC-pTyr peptide was added, and the mixture was incubated for 90 min. Streptavidin-coated donor beads and anti-FITC acceptor beads were added and incubated for 90 min before the signals were measured with an Envision Xcite plate reader (PerkinElmer Life Sciences, Waltham, MA, USA).

[2] = target: T2, Grb2 SH2 (Homo sapiens, UniProt P62993); test: AlphaScreen SH2 binding assay, Grb2
T2 construct: Avi-tag (N); 6His-tag (N)
Description: as §1

[3] = target: T3, cellular STAT3 in MDA-MB-468 cells (Homo sapiens, UniProt P40763); test: Pull-down assay using Bio-BENDA, anti-STAT3 immunoprecipitation; type: cell-based; settings: 50 μM Bio-BENDA plus excess free drug, 4 h
T3 construct: endogenous in cells; host or cells: MDA-MB-468
Description: MDA-MB-468 cells were treated with biotinylated BENDA (Bio-BENDA) in the presence or absence of an excess amount of free drugs for 4 h and then lysed in PhosphoSafe™ Extraction Reagent (Merck, Darmstadt, Germany). Lysate (200 μL) was precleared with a mixture of Protein G Plus/Protein A Agarose Suspension (EMD Millipore, Billerica, MA, USA) for 1 h at 4°C and protein A and G agarose were removed by centrifugation at 13,000 rpm for 10 min. The lysate (200 μL) was immunoprecipitated with STAT3 antibody (1 μL) overnight at 4°C on a shaker and the immunocomplex was captured by the addition of a Protein G Plus/Protein A Agarose Suspension (30 μL) slurry for 1 h at 4°C. Samples were washed five times with lysis buffer and then boiled four times in SDS-PAGE sample buffer and run on an SDS-PAGE gel. The protein was transferred to a nitrocellulose membrane. The membranes were blocked in 5% skim milk in TBS/0.1% Tween 20. They were then incubated with streptavidin-HRP diluted at 1:2000 in 1.5% skim milk in TBS (pH7.4)/0.1% Tween 20 overnight at 4°C. Immunoblots were developed by using a chemiluminescent substrate.

[4] = target: T4, nuclear STAT3 of MDA-MB-468 cells (Homo sapiens, UniProt P40763); test: STAT3 DNA binding assay (TransAM ELISA); type: cell-based; settings: MDA-MB-468, 24 h; BENDA 25, 50, 100 μM, HP2 100 μM
T4 construct: endogenous in cells; host or cells: MDA-MB-468
Description: The DNA-binding activity of STAT3 was evaluated with a TransAM ELISA kit (Active Motif, Carlsbad, CA, USA). The assay and nuclear extract preparation were performed according to the manufacturer’s instructions. Heat-denatured nuclear extract was used as a negative control. The nuclear extract (20 μg) was added to each well of a 96-well microtiter plate coated with immobilized oligonucleotides containing the STAT3 consensus binding site and incubated at room temperature for 1 h. They were incubated with anti-STAT3 antibody for 1 h at room temperature, followed by HRP-conjugated antibody for 1 h at room temperature. The developing solution was added, the reaction was terminated by the addition of stop solution, and the absorbance was measured at 450 nm with a reference wavelength of 655 nm (SpectraMax M5SK, Molecular Devices, Sunnyvale, CA, USA).

[5] = target: T5, STAT3-DNA complex (c-myc promoter) in MDA-MB-468 cells (Homo sapiens, UniProt P40763); test: ChIP assay, c-myc promoter binding by STAT3; type: cell-based; settings: MDA-MB-468, 8 h; BENDA 25, 50, 100 μM, HP2 50, 100 μM
T5 construct: endogenous in cells; host or cells: MDA-MB-468
Description: A ChIP assay was performed with an ExactaChIP Human/Mouse STAT3 ChIP kit (R&D Systems, Minneapolis, MN, USA). MDA-MB-468 cancer cells were fixed with 1% formaldehyde and treated with the lysis buffer. After sonication, anti-STAT3 antibody or normal mouse IgG was added to the extract, followed by precipitation with Protein G Plus/Protein A Agarose Suspension. The eluted DNA fraction was used for PCR with human c-myc primers.

[6] = system: c-myc mRNA in MDA-MB-468 cells; test: RT-PCR of c-myc mRNA; type: cell-based, human; settings: 8 h
[7] = system: STAT3-Y705 phosphorylation in MDA-MB-468 cells; test: Western blotting of STAT3-Y705 phosphorylation; type: cell-based, human; settings: MDA-MB-468, 50 or 100 μM, 24 h
Description: (§2) Cells were treated with PhosphoSafe Extraction Reagent. Total proteins (40 μg) were subjected to SDS-PAGE and then transferred onto a nitrocellulose membrane. Membranes were blocked in 5% skim milk in TBS/0.1% Tween 20, incubated with primary antibodies diluted at 1:1000 in 1.5% skim milk in TBS (pH 7.4)/0.1% Tween 20 overnight at 4°C, and then incubated with HRP-conjugated secondary antibodies diluted at 1:5000 in TBS (pH 7.4)/0.1% Tween 20 for 1 h at room temperature. Immunoblots were developed with a chemiluminescent substrate.

[8] = system: c-Myc protein in MDA-MB-468 cells; test: Western blotting of c-Myc protein; type: cell-based, human; settings: MDA-MB-468, 50 or 100 μM, 24 h
Description: as §2

[9] = system: cyclin D1, survivin and Bcl-2 mRNA in MDA-MB-468 cells; test: RT-PCR of STAT3 target genes cyclin D1, survivin, Bcl-2; type: cell-based, human; settings: MDA-MB-468, 50 or 100 μM, 8 h
[10] = system: MDA-MB-468 cells (high P-STAT3); test: WST cell proliferation assay, MDA-MB-468; type: cell-based, human; settings: 0.1-100 μM, 48 h, WST-8
Description: Cells were plated in a 96-well tissue culture plate (1000 cells per well) and incubated for 48 h. After incubation, the cells were treated with vehicle, 0.1–100 μM BENDA, or HP2 for 48 h. Samples were assayed in triplicate. After incubation, WST-8 solution (10 μL; Dojindo Molecular Technologies, Rockville, MD, USA) was added to each well and incubated at 37°C for 4 h, and the absorbance was read at 450 nm.

[11] = system: cells; design: method as in PMID 22768280; settings: cited from earlier work

T5 sequence (P40763 2-770 limits assumed, one chain of several): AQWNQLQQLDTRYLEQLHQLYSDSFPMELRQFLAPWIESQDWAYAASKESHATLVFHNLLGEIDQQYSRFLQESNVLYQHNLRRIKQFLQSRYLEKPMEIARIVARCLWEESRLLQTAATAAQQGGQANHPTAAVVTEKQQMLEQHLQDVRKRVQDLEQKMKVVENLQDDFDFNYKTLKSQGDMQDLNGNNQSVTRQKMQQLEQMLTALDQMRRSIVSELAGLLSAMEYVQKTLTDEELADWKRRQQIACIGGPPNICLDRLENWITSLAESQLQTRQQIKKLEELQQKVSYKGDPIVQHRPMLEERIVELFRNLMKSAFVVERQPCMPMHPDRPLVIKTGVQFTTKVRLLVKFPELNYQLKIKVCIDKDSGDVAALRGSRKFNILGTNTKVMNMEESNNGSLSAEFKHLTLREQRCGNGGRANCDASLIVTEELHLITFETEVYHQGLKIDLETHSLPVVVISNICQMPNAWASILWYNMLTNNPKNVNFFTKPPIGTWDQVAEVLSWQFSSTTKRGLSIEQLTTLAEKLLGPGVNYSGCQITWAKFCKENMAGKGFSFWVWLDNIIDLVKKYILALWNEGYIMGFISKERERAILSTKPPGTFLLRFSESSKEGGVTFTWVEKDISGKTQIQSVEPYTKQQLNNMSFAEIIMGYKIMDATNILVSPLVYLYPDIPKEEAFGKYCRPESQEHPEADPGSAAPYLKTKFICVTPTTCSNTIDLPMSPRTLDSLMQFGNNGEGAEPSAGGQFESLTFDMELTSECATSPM
T4 sequence (P40763 2-770 limits assumed): as the sequence (P40763 2-770 limits assumed, one chain of several) above
T3 sequence (P40763 2-770 limits assumed): as the sequence (P40763 2-770 limits assumed, one chain of several) above
T2 sequence (P62993 whole entry): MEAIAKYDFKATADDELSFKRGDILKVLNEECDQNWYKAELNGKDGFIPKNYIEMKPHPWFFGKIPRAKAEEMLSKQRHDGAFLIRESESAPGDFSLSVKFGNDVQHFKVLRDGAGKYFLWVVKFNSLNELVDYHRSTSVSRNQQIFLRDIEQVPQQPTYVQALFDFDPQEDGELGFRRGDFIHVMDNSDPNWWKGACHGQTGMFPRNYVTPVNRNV
T1 sequence (P42224 whole entry): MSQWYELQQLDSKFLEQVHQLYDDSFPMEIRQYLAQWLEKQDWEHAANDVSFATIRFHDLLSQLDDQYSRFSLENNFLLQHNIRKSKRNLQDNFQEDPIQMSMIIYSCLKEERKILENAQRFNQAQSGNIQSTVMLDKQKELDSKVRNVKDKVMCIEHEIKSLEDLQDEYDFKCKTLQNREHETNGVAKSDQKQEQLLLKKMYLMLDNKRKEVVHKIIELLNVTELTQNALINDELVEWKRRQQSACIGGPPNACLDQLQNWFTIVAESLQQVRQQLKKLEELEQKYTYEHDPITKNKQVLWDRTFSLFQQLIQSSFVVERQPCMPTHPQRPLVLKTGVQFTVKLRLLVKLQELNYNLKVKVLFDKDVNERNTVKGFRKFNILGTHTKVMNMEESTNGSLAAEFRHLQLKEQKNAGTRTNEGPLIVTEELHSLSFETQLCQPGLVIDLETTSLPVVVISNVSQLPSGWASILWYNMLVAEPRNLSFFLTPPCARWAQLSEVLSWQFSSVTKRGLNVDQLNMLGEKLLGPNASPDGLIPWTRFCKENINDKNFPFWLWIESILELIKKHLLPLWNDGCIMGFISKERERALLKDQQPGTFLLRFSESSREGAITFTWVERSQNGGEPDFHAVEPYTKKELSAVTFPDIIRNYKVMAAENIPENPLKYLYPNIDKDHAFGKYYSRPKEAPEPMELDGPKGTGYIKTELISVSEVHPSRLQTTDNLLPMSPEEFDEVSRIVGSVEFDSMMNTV

Structure (SMILES): Cn1c(CCCC(=O)O)nc2cc(N(CCCl)CCCl)ccc21 [BENDA, 4-{5-[bis(2-chloroethyl)amino]-1-methyl-2-benzimidazolyl} butyric acid]
- IC50 [1]: 60 µM
- IC50 [2]: > 100 µM
- Competition of Bio-BENDA STAT3 band intensity by excess free drug [3]: competitively reduced
- Inhibition of STAT3 binding to oligonucleotides containing STAT3 consensus binding site [4]: inhibited
- Amplified c-myc promoter band in STAT3 ChIP [5]: reduced
- c-myc mRNA expression, % of vehicle treatment ([6]; MDA-MB-468, 50 μM): 72%
- c-myc mRNA expression, % of vehicle treatment ([6]; MDA-MB-468, 100 μM): 33%
- Phosphorylation of STAT3-Y705 [7]: inhibited the phosphorylation of STAT3-Y705 in a concentration-dependent manner
- Expression of c-Myc protein [8]: inhibited the expression of c-Myc protein
- Bcl-2 mRNA expression [9]: dose-dependent decrease
- cyclin D1 mRNA expression [9]: dose-dependent decrease
- survivin mRNA expression [9]: dose-dependent decrease
- Inhibition of proliferation of MDA-MB-468 cells [10]: inhibited proliferation
- Cell cycle arrest ([11]; 50 μM): transiently arrested cells in G2
- Cell cycle arrest ([11]; 200 μM): arrested cells in S phase
